Data on two compounds can be found in patent US11400389B2, “Marsdenia cundurango creeper extracts, cosmetic compositions comprising them and cosmetic uses of same” (ISP Investments LLC, priority 2017, dated 2022).

One assay relates to LAMP2. Briefly: Expression of the LAMP2 autophagy marker in skin biopsies with or without multi-toxin (cigarette smoke) stress. Conditions: human skin biopsies, extract 1% in a cream, EGCG 200 μg/ml. It counts as cell-based. The protocol: The objective of this study was to observe the effect of treatment by condurango on skin biopsies previously subjected to multi-toxin stress, brought about by incubating the biopsies with cigarette smoke.
The selected marker is the lysosomal membrane protein LAMP2A, which is involved in the process of autophagy, one of the main pathways of degradation of cellular waste.
Human skin biopsies in culture were placed in a sealed chamber saturated with cigarette smoke for 30 minutes. This stress was referred to as multi-toxic stress due to the cigarette smoke being composed of toxic molecules from different classes. After the stress, the biopsies were placed in culture and treated by the condurango extract obtained from example 4 and formulated to 1% (mass/mass) in a cream, as in example 5. […]
At the end of this incubation, the protein LAMP2 was detected by immunomarking on skin biopsy sections.
This technique was performed on paraffin skin sections incubated in the presence of the anti-LAMP2 antibody (rabbit polyclonal antibody, Abcam) After 1 hour of incubation followed by rinsings, the sections were incubated in the presence of secondary anti-rabbit antibody coupled with a fluorophore (Alexa Fluor® 488, Invitrogen). The sections were then examined under epi-fluorescence microscope (Zeiss Axiovert 200M microscope). The expression of LAMP2 was then observed and quantified at epidermis level.

The test system of another assay is interleukin-6 (IL-6). Briefly: Salting-out of interleukin-6 by skin biopsies subjected to stress by substance P (ELISA). It counts as cell-based, human. Conditions: substance P 10^−6 M in culture medium, 48 hours, extract 1% in a cream where applied. The text has this:
The objective of this experiment was to study the effect of the condurango extract on skin biopsies subjected to a stress by the substance P. The substance P was the central mediator of neurogenic inflammation (inflammation mediated via the peripheral nervous system). The neuropeptide is involved in various processes, including acute or chronic inflammation, and the perception of pain or nociception. The effect of the stress, whether or not brought about in the presence of the condurango extract, was studied by measuring the salting-out of interleukin-6 (IL-6), a cytokine synthesised by skin cells and considered to be a nociceptive inflammation mediator (O'Donovan A et al. Clinical anxiety, cortisol and interleukin-6: evidence for specificity in emotion-biology relationships. Brain Behav Immun. 2010 October; 24(7):1074-7).
Skin biopsies in culture were treated with the condurango extract obtained from example 4, formulated to 1% in a cream, as in example 5, with or without addition of substance P at 10^−6 M in the culture medium.
After 48 hours of incubation, the culture medium of the biopsies was collected and the level of IL-6 was measured by ELISA.
In general terms: ELISA stands for enzyme-linked immunosorbent assay.

No end group written: not given here.

Consider `O=C(O[C@@H]1Cc2c(O)cc(O)cc2O[C@@H]1c1cc(O)c(O)c(O)c1)c1cc(O)c(O)c(O)c1` [EGCG, epigallocatechin gallate], for which, in the assay on LAMP2 (cigarette smoke 30 minutes then treatment), the “increase of LAMP2 after multi-toxic stress” value is reported as “+26%”. Further, the “rise in the marking intensity of LAMP2, in the absence of stress” value in the assay with LAMP2 (no stress, 48 hours) is listed as “+27%”.
Turning to “substance P: neuropeptide, central mediator of neurogenic inflammation, used as stressor (RPKPQQFFGLM; ends and bridges not checked; UniProt P20366 58-68, looked up)”, the “level of IL-6 compared to the non-stressed control” value with interleukin-6 (IL-6) is on record as “+68%”.
